Key:
[1] = test system: RXF 393; experiment: NCI 60 antitumor screening (single dose / five doses); format: cell-based; settings: Homo sapiens; RXF 393 (renal cancer), single dose 10 μM; read-out: Growth inhibition percentage (GI %)
[2] = test system: SW-620; experiment: as above; format: cell-based, human; settings: Homo sapiens; SW-620 (colon cancer), single dose 10 μM; read-out: Growth inhibition percentage (GI %)
[3] = test system: SK-MEL-28; experiment: as above; format: cell-based; settings: Homo sapiens; SK-MEL-28 (melanoma), single dose 10 μM; read-out: Growth inhibition percentage (GI %)
[4] = test system: DU-145; experiment: as above; format: cell-based; settings: Homo sapiens; DU-145 (prostate cancer), single dose 10 μM; read-out: Growth inhibition percentage (GI %)
[5] = test system: SNB-19; experiment: NCI 60 antitumor screening (single dose); format: cell-based; settings: Homo sapiens; SNB-19 (CNS cancer), single dose 10 μM; read-out: Growth inhibition percentage (GI %)
Summary of the method: (§1)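 Values are GI% (100 − G%) from the NCI 60-line single-dose screen, compound at 10 μM.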

[6] = test system: HOP-62; experiment: NCI 60 antitumor screening (single dose); format: cell-based; settings: Homo sapiens; HOP-62 (non-small cell lung cancer), single dose 10 μM; read-out: Growth inhibition percentage (GI %)
Summary of the method: (§2)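 The panel mean likewise comes from single-dose (10 μM) NCI 60-line testing, with inhibition expressed as 100 − G%.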

[7] = test system: NCI-H23; experiment: NCI 60 antitumor screening (single dose); format: cell-based; settings: Homo sapiens; NCI-H23 (non-small cell lung cancer), single dose 10 μM; read-out: Growth inhibition percentage (GI %)
Summary of the method: as §2

[8] = test system: NCI-H522; experiment: NCI 60 antitumor screening (single dose); format: cell-based; settings: Homo sapiens; NCI-H522 (non-small cell lung cancer), single dose 10 μM; read-out: Growth inhibition percentage (GI %)
Summary of the method: as §2

[9] = test system: HCC-2998; experiment: NCI 60 antitumor screening (single dose); format: cell-based; settings: Homo sapiens; HCC-2998 (colon cancer), single dose 10 μM; read-out: Growth inhibition percentage (GI %)
Summary of the method: as §2

[10] = test system: OVCAR-4; experiment: NCI 60 antitumor screening (single dose); format: cell-based; settings: Homo sapiens; OVCAR-4 (ovarian cancer), single dose 10 μM; read-out: Growth inhibition percentage (GI %)
Summary of the method: as §1

[11] = test system: NCI-H322M; experiment: NCI 60 antitumor screening (single dose); format: cell-based; settings: Homo sapiens; NCI-H322M (non-small cell lung cancer), single dose 10 μM; read-out: Growth inhibition percentage (GI %)
Summary of the method: as §1

[12] = test system: KM 12; experiment: NCI 60 antitumor screening (single dose); format: cell-based; settings: Homo sapiens, KM12; KM 12 (colon cancer), single dose 10 μM; read-out: Growth inhibition percentage (GI %)
Summary of the method: as §1

[13] = test system: U251; experiment: NCI 60 antitumor screening (single dose); format: cell-based; settings: Homo sapiens, U-251; U251 (CNS cancer), single dose 10 μM; read-out: Growth inhibition percentage (GI %)
Summary of the method: as §2

[14] = test system: MCF7; experiment: NCI 60 antitumor screening (single dose); format: cell-based; settings: Homo sapiens; MCF7 (breast cancer), single dose 10 μM; read-out: Growth inhibition percentage (GI %)
Summary of the method: as §1

[15] = test system: OVCAR-5; experiment: NCI 60 antitumor screening (single dose); format: cell-based; settings: Homo sapiens; OVCAR-5 (ovarian cancer), single dose 10 μM; read-out: Growth inhibition percentage (GI %)
Summary of the method: as §2

[16] = test system: SK-OV-3; experiment: NCI 60 antitumor screening (single dose); format: cell-based; settings: Homo sapiens; SK-OV-3 (ovarian cancer), single dose 10 μM; read-out: Growth inhibition percentage (GI %)
Summary of the method: as §2

[17] = test system: OVCAR-3; experiment: NCI 60 antitumor screening (single dose); format: cell-based; settings: Homo sapiens; OVCAR-3 (ovarian cancer), single dose 10 μM; read-out: Growth inhibition percentage (GI %)
Summary of the method: as §1

[18] = test system: CAKI-1; experiment: NCI 60 antitumor screening (single dose); format: cell-based; settings: Homo sapiens; CAKI-1 (renal cancer), single dose 10 μM; read-out: Growth inhibition percentage (GI %)
Summary of the method: as §1

[19] = test system: OVCAR-8; experiment: NCI 60 antitumor screening (single dose); format: cell-based; settings: Homo sapiens; OVCAR-8 (ovarian cancer), single dose 10 μM; read-out: Growth inhibition percentage (GI %)
Summary of the method: as §1

[20] = test system: NCI-H226; experiment: NCI 60 antitumor screening (single dose); format: cell-based; settings: Homo sapiens; NCI-H226 (non-small cell lung cancer), single dose 10 μM; read-out: Growth inhibition percentage (GI %)
Summary of the method: as §1

[21] = test system: NCI-H460; experiment: NCI 60 antitumor screening (single dose); format: cell-based; settings: Homo sapiens; NCI-H460 (non-small cell lung cancer), single dose 10 μM; read-out: Growth inhibition percentage (GI %)
Summary of the method: as §2

[22] = test system: A549/ATCC; experiment: NCI 60 antitumor screening (single dose); format: cell-based; settings: Homo sapiens; A549/ATCC (non-small cell lung cancer), single dose 10 μM; read-out: Growth inhibition percentage (GI %)
Summary of the method: as §1

[23] = test system: PC-3; experiment: NCI 60 antitumor screening (single dose); format: cell-based; settings: Homo sapiens; PC-3 (prostate cancer), single dose 10 μM; read-out: Growth inhibition percentage (GI %)
Summary of the method: as §1

[24] = test system: SF-268; experiment: NCI 60 antitumor screening (single dose); format: cell-based; settings: Homo sapiens; SF-268 (CNS cancer), single dose 10 μM; read-out: Growth inhibition percentage (GI %)
Summary of the method: as §2

[25] = test system: SF-295; experiment: NCI 60 antitumor screening (single dose / five doses); format: cell-based; settings: Homo sapiens; SF-295 (CNS cancer), single dose 10 μM; read-out: Growth inhibition percentage (GI %)
[26] = test system: IGROV1; experiment: as above; format: cell-based; settings: Homo sapiens, IGROV-1; IGROV1 (ovarian cancer), single dose 10 μM; read-out: Growth inhibition percentage (GI %)

| Structure (SMILES) | inhibition at 10 µM [1] | inhibition at 10 µM [2] | inhibition at 10 µM [3] | inhibition at 10 µM [4] | inhibition at 10 µM [5] | inhibition at 10 µM [6] | inhibition at 10 µM [7] | inhibition at 10 µM [8] | inhibition at 10 µM [9] | inhibition at 10 µM [10] | inhibition at 10 µM [11] | inhibition at 10 µM [12] | inhibition at 10 µM [13] | inhibition at 10 µM [14] | inhibition at 10 µM [15] | inhibition at 10 µM [16] | inhibition at 10 µM [17] | inhibition at 10 µM [18] | inhibition at 10 µM [19] | inhibition at 10 µM [20] | also measured |
| --- | --- | --- | --- | --- | --- | --- | --- | --- | --- | --- | --- | --- | --- | --- | --- | --- | --- | --- | --- | --- | --- |
| Oc1ccc(/C=N/Nc2nc(N/N=C/c3ccc(O)c(O)c3)nc(N3CCCCC3)n2)cc1O [compound 7j, 4-[(1e)-(2-{4-[(E)-2-[(3,4-Dihydroxyphenyl)methylidene]hydrazin-1-yl]-6-(piperidin-1-yl)-1,3,5-triazin-2-yl}hydrazin-1-ylidene)methyl]benzene-1,2-diol] | -17.8% | 6.35% | -7.04% | 0.25% | 13.7% | -10.5% | 0.5% | 6.61% | -5% | -0.74% | -2.3% | -0.29% | 9.07% | 4.27% | -13.1% | -24.8% | 5.01% | 13.4% | 1.94% | 4.47% | inhibition at 10 µM [21]: 0.77%; inhibition at 10 µM [22]: -0.07%; inhibition at 10 µM [23]: 9.42%; inhibition at 10 µM [24]: -2.56%; inhibition at 10 µM [25]: 0.36%; inhibition at 10 µM [26]: 5.35% |
| C(=N\Nc1nc(N/N=C/c2ccc3c(c2)OCO3)nc(N2CCCCC2)n1)/c1ccc2c(c1)OCO2 [compound 7k, 2,4-Bis[(E)-2-(2H-1,3-Benzodioxol-5-ylmethylidene)hydrazin-1-yl]-6-(piperidin-1-yl)-1,3,5-triazine] | 20.3% | 17.6% | -8.67% | 0.19% | 19.7% | -22.5% | -1.44% | 8.07% | 16.2% | -9.55% | 1.53% | 13.8% | 18.6% | 45.2% | -18.2% | -39.5% | -5.21% | 1.07% | 9.89% | -0.61% | inhibition at 10 µM [21]: 9.41%; inhibition at 10 µM [22]: 8.56%; inhibition at 10 µM [23]: 26.4%; inhibition at 10 µM [24]: -0.46%; inhibition at 10 µM [25]: 22.2%; inhibition at 10 µM [26]: 23.1% |

Reference: PMC9848300, “Discovery of novel enasidenib analogues targeting inhibition of mutant isocitrate dehydrogenase 2 as antileukaemic agents” (Journal of Enzyme Inhibition and Medicinal Chemistry, 2023)
